Assay results reported in US5530095A, “Peptides of melanin concentrating hormone precursor” (The Salk Institute for Biological Studies, priority 1995, dated 1996).
Bridge positions count the residues as written; N and C are the ends. Ends that are not written are not given here. Peptide text beside a SMILES is read from it.

Legend:
[1] = tested on: rabbit anti-salmon MCH antibody (Antibody PBL #171); experiment: Radioimmunoassay based on rabbit anti-salmon MCH antibody PBL #171 with 125I-salmon MCH tracer; type: binding; conditions: for cross-reactivity in the salmon MCH radioimmunoassay: Antibody PBL #171
Protocol: Salmon MCH, having the formula [drawing 7] is synthesized and purified as described in Example I. It is then conjugated to human alpha-globulins (U.S. Biochemicals, Frac IV) via glutaraldehyde by a reaction well known in the art. The salmon MCH-human alpha-globulins conjugate is diluted with physiological saline (0.9%s/v) to a final concentration of 1 mg total protein per milliliter Freund's Complete Adjuvant Modified M. butyricum (Calbiochem) is emulsified with an equal volume of saline containing either 1 mg conjugate/ml (for initial injections) or 0.5 mg conjugate/ml (for boosters). For each immunization, the rabbits receive a total of 1 ml emulsion in 20-30 intradermal sites; they are injected every 2 weeks and bled through an ear vein 7 days after each booster. Blood is allowed to clot, and serum is separated from cells by centrifugation. The antiserum from each bleeding is characterized with respect to titer and affinity. Some of this antiserum is labelled PBL #171.
Salmon MCH (1 μg) is radiolabelled using 1 mCurie Na^125 I (New England Nuclear, NEZ 033L) and 1 μg Chloramine T in a total volume of 40 μl of 1.25M sodium phosphate buffer, pH 7.5. Reaction is allowed to proceed for 30-45 seconds and then immediately quenched by the addition of 10 mg bovine serum albumin (BSA). ^125 I-salmon MCH is then purified by adsorption and elution from a BondElut C18 cartridge (Analytichem International). The eluant from the C18 cartridge is reduced to about 200 μl using a Savant Speed-Vac and then further purified by HPLC using a Vydac C18 column, 0.46×25 cm, 5 μm, 300 Å pore size. Buffer A is 0.1% trifluoroacetic acid (TFA); buffer B is 60% acetonitrile in 0.1% TFA. ^125 I-salmon MCH is loaded at 35% B at a flow rate of 1.5 ml/min, and a gradient is then run to 70% B in 40 minutes. Peak tubes of radioactivity are made 0.5% final in BSA. Several peaks of radioactivity are reproducibly eluted, and the first major zone of radioactivity is routinely used for the radioimmunoassay.
Throughout the purification, fractions are monitored using an RIA based upon this rabbit anti-salmon MCH antibody. Aliquots for assay are transferred into glass tubes containing BSA (10 μl of 10 mg/ml) and dried in a Savant Speed Vac. Fractions are resuspended in RIA assay buffer and pH checked and adjusted if necessary with NaOH. The radioimmunoassay is carried out using chilled reagents and with tubes partially immersed in ice water. On day one, 100 μl of buffer with Antibody PBL #171 1/24,000 dilution (1/120,000 final dilution) is added to glass tubes containing standard or test samples or buffer only in a volume of 300 μl. All treatments are tested in duplicate. Buffer is 0.1M sodium chloride, 0.05M sodium phosphate, 0.025M ethylenediaminetetraacetic acid (EDTA), 0.1% sodium azide, pH 7.5 (SPEA buffer) with 0.1% BSA. Standards ranging from 0.5 to 2000 pg of synthetic salmon MCH are used. Samples are tested at 2-5 dose levels. After these additions, tubes are vortexed and incubated at 4 ° C. for 24 hours. On day two, 20,000 cpm of ^125 -salmon MCH with 0.5% normal rabbit serum diluted in SPEA buffer +0.1% BSA is added in a volume of 100 μl to all tubes. The tubes are vortexed and returned to the cold for approximately 24 hours. On day three, tracer bound to antibody is precipitated with sheep anti-rabbit gamma globulins (100 μl, 1/40 dilution) and 0.5 ml of 10% (w/v) polyethylene glycol (SIGMA, MW=6,000 to 8,000). Tubes are vortexed and incubated 15 to 30 minutes at room temperature. Tubes are washed with 1 ml of SPEA buffer and centrifuged at 4° C. for 30-45 minutes at 2000× g. Supernatants are decanted, and pellets are counted in a gamma counter. Results are calculated using a standard logit/log radioimmunoassay data processing program NICHD RRB, NIH.

[2] = tested on: rat pituitary halves (secretion of ACTH); experiment: In vitro assay using rat pituitary halves to monitor secretion of ACTH; type: cell-based
Protocol: In vitro assays are performed with the mammalian MCH and the synthetic salmon MCH peptides, using rat pituitary halves to monitor for the secretion of ACTH. Assays of this type are described in more detail in Proc. Natl. Acad. Sci., 85, 5556-5560 (1988). […] As a result, it is believed that mammalian MCH should be useful as a natural, peptide regulator of the pituitary-adrenal axis. It is likewise believed that mammalian MCH peptides will be useful for clinical application in the treatment of pigment disorders as well as in the diagnosis and therapy of melanoma. It is also believed that they will be effective in the treatment of certain forms of dementia and may have uses in connection with nerve damage situations.

[3] = Biological potency in mammalian assays
[4] = tested on: fish melanophores; conditions: cited from earlier work
[5] = tested on: melanosomes in amphibians; conditions: cited from earlier work
[6] = tested on: antibodies against human GRF; experiment: Cross-reaction with antibodies against human GRF; type: binding; conditions: suggested by homology of human GRF 30-37 with NGE 12-19
Excerpt: The sequences of the NGE's correspond to the sequences of amino acids 110-128 of the MCH precursors (see Tables 1 and 2, below). […] It is thought that NGE's, like NEI, have a biological function in vivo.

| Compound | cross-reactivity in the salmon MCH radioimmunoassay [1] | further results |
| --- | --- | --- |
| NC(=O)CC[C@@H]1NC(=O)[C@H](Cc2ccccc2)NC(=O)[C@H](Cc2ccc(O)cc2)NC(=O)[C@@H](N)CSSC[C@@H](C(=O)N2CCC[C@H]2C(=O)N[C@@H](CCCN=C(N)N)C(=O)NCC(N)=O)NC(=O)[C@H](CC(N)=O)NC1=O [arginine vasopressin] | no cross-reactivity |  |
| CSCC[C@@H]1NC(=O)[C@@H](NC(=O)[C@H](CCCNC(=N)N)NC(=O)[C@H](CC(C)C)NC(=O)[C@H](CCSC)NC(=O)[C@H](CC(=O)O)NC(=O)[C@H](Cc2ccccc2)NC(=O)[C@@H](N)CC(=O)O)CSSC[C@@H](C(=O)N[C@@H](Cc2c[nH]c3ccccc23)C(=O)N[C@@H](CCC(N)=O)C(=O)N[C@H](C(=O)O)C(C)C)NC(=O)[C@@H]2CCCN2C(=O)[C@H](CCCNC(=N)N)NC(=O)[C@H](Cc2ccc(O)cc2)NC(=O)[C@H](C(C)C)NC(=O)[C@H](CCCNC(=N)N)NC(=O)CNC(=O)[C@H](CC(C)C)NC1=O [mammalian MCH] |  | displacement in radioimmunoassays ([1]; radioimmunoassays also run with synthetic salmon MCH): shows displacement; modulation of ACTH secretion/production [2]: very potent modulators of ACTH production; biological potency in mammalian assays [3]: more potent reaction than the alpha-MSH and beta-MSH antagonists |
| CC[C@H](C)[C@@H]1NC(=O)[C@H](Cc2ccc(O)cc2)NC(=O)[C@@H](N)CSSC[C@@H](C(=O)N2CCC[C@H]2C(=O)N[C@@H](CC(C)C)C(=O)NCC(N)=O)NC(=O)[C@H](CC(N)=O)NC(=O)[C@H](CCC(N)=O)NC1=O [oxytocin] | no cross-reactivity |  |
| CSCC[C@@H]1NC(=O)[C@@H](NC(=O)[C@H](CCCNC(=N)N)NC(=O)[C@H](CCSC)NC(=O)[C@@H](NC(=O)[C@@H](N)CC(=O)O)[C@@H](C)O)CSSC[C@@H](C(=O)N[C@@H](Cc2c[nH]c3ccccc23)C(=O)N[C@@H](CCC(=O)O)C(=O)N[C@H](C(=O)O)C(C)C)NC(=O)[C@@H]2CCCN2C(=O)[C@H](CCCNC(=N)N)NC(=O)[C@H](Cc2ccc(O)cc2)NC(=O)[C@H](C(C)C)NC(=O)[C@H](CCCNC(=N)N)NC(=O)CNC(=O)[C@H](C(C)C)NC1=O [salmon MCH] (H-DTMRCMVGRVYRPCWEV-OH; disulfide 5-14) |  | EC50 in the radioimmunoassay ([1]; Antibody PBL #171 1/120,000 final dilution, 125I-salmon MCH tracer, n=10): 18.5 ± 3.2 pg; modulation of ACTH secretion/production [2]: substantially no effect on the secretion of ACTH; biological potency in mammalian assays [3]: extremely little biological potency; melanosome aggregation [4]: induces melanosome aggregation; effect on melanosomes in amphibians [5]: causing dispersal of melanosomes |
| Gly-XNGE -Phe-Pro-Ala-Glu-Asn-Gly-Val-Gln-Asn-Thr-Glu-Ser-Thr-Gln-Glu |  | cross-reaction of anti-GRF antibodies [6]: cross-react |
| GnRH: GnRH peptide hormone (QHWSYGLRPG; ends and bridges not checked; UniProt P01148 24-33, looked up) | no cross-reactivity |  |
| SS-14: SS-14 peptide tested for RIA cross-reactivity (AGCKNFFWKTFTSC; ends and bridges not checked; cysteine pairing not given here; UniProt P61278 103-116, looked up) | no cross-reactivity |  |
| SS-28: SS-28 peptide tested for RIA cross-reactivity (SANSNPAMAPRERKAGCKNFFWKTFTSC; ends and bridges not checked; cysteine pairing not given here; UniProt P61278 89-116, looked up) | no cross-reactivity |  |
| human GRF(1-40)-OH: human growth hormone releasing factor (1-40), free acid (YADAIFTNSYRKVLGQLSARKLLQDIMSRQQGESNQERGA-OH; UniProt P01286 32-71, looked up, fragment) | no cross-reactivity |  |
| rat ACTH: rat ACTH peptide hormone (SYSMEHFRWGKPVGKKRRPVKVYPNVAENESAEAFPLEF; Corticotropin; UniProt P01194 124-162, looked up) | no cross-reactivity |  |
| rat CRF: rat corticotropin-releasing factor (SEEPPISLDLTFHLLREVLEMARAEQLAQQAHSNRKLMEII; ends and bridges not checked; UniProt P01143 145-185, looked up) | no cross-reactivity |  |
| rat GRF: rat growth hormone releasing factor (HADAIFTSSYRRILGQLYARKLLHEIMNRQQGERNQEQRSRFN; Somatoliberin; UniProt P09916 31-73, looked up) | no cross-reactivity |  |
| β-MSH | no cross-reactivity |  |
| β-endorphin (YGGFMTSEKSQTPLVTLFKNAIIKNAYKKGE; Beta-endorphin; UniProt P01189 237-267, looked up) | no cross-reactivity |  |
